Data as given in patent US9556190B2, “Piperidinyloxy lactone orexin receptor antagonists” (MERCK SHARP & DOHME CORP., priority 2013, dated 2017).

Key:
hOX1R = hOX1R (Homo sapiens, UniProt O43613); test: FLIPR Ca2+ Flux Assay, CHO cells expressing orexin-1 receptor; format: cell-based; settings: 70 pM Ala-6,12 orexin-A agonist
human orexin-2 receptor = human orexin-2 receptor (Homo sapiens (Human), UniProt O43614); test: FLIPR Ca2+ Flux Assay, CHO cells expressing orexin-2 receptor; format: cell-based; settings: 70 pM Ala-6,12 orexin-A agonist, read-out: hOX2R FLIPR IC50
Sequence of human orexin-2 receptor (O43614 whole entry): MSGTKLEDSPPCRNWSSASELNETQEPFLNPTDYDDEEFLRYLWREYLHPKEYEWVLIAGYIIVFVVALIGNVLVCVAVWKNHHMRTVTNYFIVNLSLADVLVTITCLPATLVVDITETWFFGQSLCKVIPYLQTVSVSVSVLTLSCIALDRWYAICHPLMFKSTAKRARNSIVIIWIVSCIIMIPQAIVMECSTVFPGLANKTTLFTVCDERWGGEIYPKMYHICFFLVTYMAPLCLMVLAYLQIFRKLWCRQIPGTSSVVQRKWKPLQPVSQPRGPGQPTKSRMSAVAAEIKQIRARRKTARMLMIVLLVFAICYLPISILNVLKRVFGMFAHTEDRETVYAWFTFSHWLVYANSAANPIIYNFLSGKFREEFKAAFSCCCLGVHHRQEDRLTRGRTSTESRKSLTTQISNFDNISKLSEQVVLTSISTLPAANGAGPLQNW
Description: The utility of the compounds in accordance with the present invention as orexin receptor OX1R and/or OX2R antagonists may be readily determined without undue experimentation by methodology well known in the art, including the “FLIPR Ca^2+ Flux Assay” (Okumura et al., Biochem. Biophys. Res. Comm. 280:976-981, 2001). In a typical experiment the OX1 and OX2 receptor antagonistic activity of the compounds of the present invention was determined in accordance with the following experimental method. For intracellular calcium measurements, Chinese hamster ovary (CHO) cells expressing the rat orexin-1 receptor or the human orexin-2 receptor, are grown in Iscove's modified DMEM containing 2 mM L-glutamine, […], 1% hypoxanthine-thymidine supplement, 100 U/ml penicillin, 100 μg/ml streptomycin and 10% heat-inactivated fetal calf serum (FCS). The cells are seeded at 20,000 cells/well into Becton-Dickinson black 384-well clear bottom sterile plates coated with poly-D-lysine. All reagents were from GIBCO-Invitrogen Corp. The seeded plates are incubated overnight at 37° C. and 5% CO2. Ala-6,12 human orexin-A as the agonist is prepared as a 1 mM stock solution in 1% bovine serum albumin (BSA) and diluted in assay buffer (HBSS containing 20 mM HEPES, 0.1% BSA and 2.5 mM probenecid, pH7.4) for use in the assay at a final concentration of 70 pM. Test compounds are prepared as 10 mM stock solution in DMSO, then diluted in 384-well plates, first in DMSO, then assay buffer. On the day of the assay, cells are washed 3 times with 100 μl assay buffer and then incubated for 60 min (37° C., 5% CO2) in 60 μl assay buffer containing 1 μM Fluo-4AM ester, 0.02% pluronic acid, and 1% BSA. The dye loading solution is then aspirated and cells are washed 3 times with 100 μl assay buffer. 30 μl of that same buffer is left in each well. Within the Fluorescent Imaging Plate Reader (FLIPR, Molecular Devices), test compounds are added to the plate in a volume of 25 μl, incubated for 5 min and finally 25 μl of agonist is added. Fluorescence is measured for each well at 1 second intervals for 5 minutes and the height of each fluorescence peak is compared to the height of the fluorescence peak induced by 70 pM Ala-6,12 orexin-A with buffer in place of antagonist. For each antagonist, IC50 value (the concentration of compound needed to inhibit 50% of the agonist response) is determined. Alternatively, compound potency can be assessed by a radioligand binding assay (described in Bergman et. al. Bioorg. Med. Chem. Lett. 2008, 18, 1425-1430) in which the inhibition constant (Ki) is determined in membranes prepared from CHO cells expressing either the OX1 or OX2 receptor. The intrinsic orexin receptor antagonist activity of a compound which may be used in the present invention may be determined by these assays.

Structure (SMILES)	IC50 (hOX1R)	IC50 (human orexin-2 receptor)
C[C@@H]1CC[C@@H](Nc2nccc3c2C(=O)OC3(C)C)CN1C(=O)c1ccccc1-n1nccn1 [Example 39, 1,1-Dimethyl-4-{[(3R,6R)-6-methyl-1-{[2-(2H-1,2,3-triazol-2-yl)phenyl]carbonyl}piperidin-3-yl]amino}furo[3,4-c]pyridin-3(1H)-one]	5880 nM	49 nM
C[C@@H]1CC[C@@H](Oc2nccc3c2C(=O)OC3(C)C)CN1C(=O)c1cc(F)ccc1-c1ncccn1 [Example 24, 4-({(3R,6R)-1-[(5-fluoro-2-pyrimidin-2-ylphenyl)carbonyl]-6-methylpiperidin-3-yl}oxy)-1,1-dimethylfuro[3,4-c]pyridin-3(1H)-one]	10000 nM	72 nM
Cc1ccc(-n2nccn2)c(C(=O)N2C[C@H](Oc3nccc4c3C(=O)OC4(C)C)CC[C@H]2C)c1 [Example 5, 1,1-dimethyl-4-{[(3R,6R)-6-methyl-1-{[5-methyl-2-(2H-1,2,3-triazol-2-yl)phenyl]carbonyl}piperidin-3-yl]oxy}furo[3,4-c]pyridin-3(1H)-one]	2510 nM	54 nM
C[C@@H]1CC[C@@H](Nc2nccc3c2C(=O)O[C@@H]3C)CN1C(=O)c1ccccc1-n1nccn1 [Example 47, (1R)-1-methyl-4-{[(3R,6R)-6-methyl-1-{[2-(2H-1,2,3-triazol-2-yl)phenyl]carbonyl}piperidin-3-yl]amino}furo[3,4-c]pyridin-3(1H)-one]	7260 nM	35 nM
C[C@@H]1CC[C@@H](Oc2nccc3c2C(=O)OC3(C)C)CN1C(=O)c1ccc(F)cc1-c1ncccn1 [Example 23, 4-({(3R,6R)-1-[(4-fluoro-2-pyrimidin-2-ylphenyl)carbonyl]-6-methylpiperidin-3-yl}oxy)-1,1-dimethylfuro[3,4-c]pyridin-3(1H)-one]	10000 nM	420 nM
C[C@@H]1CC[C@@H](Oc2nccc3c2C(=O)OC3(C)C)CN1C(=O)c1ccccc1-n1ncnn1 [Example 21, 1,1-Dimethyl-4-{[(3R,6R)-6-methyl-1-{[2-(2H-tetrazol-2-yl)phenyl]carbonyl}piperidin-3-yl]oxy}furo[3,4-c]pyridin-3(1H)-one]	10000 nM	109 nM
C[C@@H]1CC[C@@H](Oc2nccc3c2COC3=O)CN1C(=O)c1ccccc1CS(C)(=O)=O [Example 33, 4-{[(3R,6R)-6-methyl-1-({2-[(methyl-sulfonyl)methyl]-phenyl}carbonyl)-piperidin-3-yl]oxy}furo[3,4-c]pyridin-1(3H)-one]	≥ 10000 nM	20 nM
Cc1cccc(C(=O)N2C[C@H](Oc3nccc4c3C(=O)OC4(C)C)CC[C@H]2C)c1-n1nccn1 [Example 8, 1,1-dimethyl-4-{[(3R,6R)-6-methyl-1-{[3-methyl-2-(2H-1,2,3-triazol-2-yl)phenyl]carbonyl}piperidin-3-yl]oxy}furo[3,4-c]pyridin-3(1H)-one]	3090 nM	43 nM
C[C@@H]1CC[C@@H](Oc2nccc3c2C(=O)OC3(C)C)CN1C(=O)c1cccc(F)c1-n1nccn1 [Example 7, 4-{[(3R,6R)-1-{[3-fluoro-2-(2H-1,2,3-triazol-2-yl)phenyl]carbonyl}-6-methylpiperidin-3-yl]oxy}-1,1-dimethylfuro[3,4-c]pyridin-3(1H)-one]	10000 nM	132 nM
C[C@@H]1CC[C@@H](Oc2nccc3c2C(=O)OC3(C)C)CN1C(=O)c1ccc(F)cc1-n1nccn1 [Example 10, 4-{[(3R,6R)-1-{[4-fluoro-2-(2H-1,2,3-triazol-2-yl)phenyl]carbonyl}-6-methylpiperidin-3-yl]oxy}-1,1-dimethylfuro[3,4-c]pyridin-3(1H)-one]	10000 nM	59 nM
C[C@@H]1CC[C@@H](Oc2nccc3c2C(=O)OC3(C)C)CN1C(=O)c1ccc(Cl)cc1-n1nccn1 [Example 9, 4-{[(3R,6R)-1-{[4-chloro-2-(2H-1,2,3-triazol-2-yl)phenyl]carbonyl}-6-methylpiperidin-3-yl]oxy}-1,1-dimethylfuro[3,4-c]pyridin-3(1H)-one]	3740 nM	54 nM
C[C@@H]1CC[C@@H](Nc2nccc3c2C(=O)OC3(C)C)CN1C(=O)c1ccccc1-c1ncccn1 [Example 42, 1,1-dimethyl-4-({(3R,6R)-6-methyl-1-[(2-pyrimidin-2-ylphenyl)carbonyl]-piperidin-3-yl}amino)furo[3,4-c]pyridin-3(1H)-one]	2860 nM	26 nM
C[C@@H]1CC[C@@H](Oc2nccc3c2C(=O)OC3(C)C)CN1C(=O)c1ccccc1-n1nccn1 [Example 1, 1,1-Dimethyl-4-{[(3R,6R)-6-methyl-1-{[2-(2H-1,2,3-triazol-2-yl)phenyl]carbonyl}piperidin-3-yl]oxy}furo[3,4-c]pyridin-3(1H)-one]	8290 nM	20 nM
C[C@@H]1CC[C@@H](Oc2nccc3c2C(=O)OC3(C)C)CN1C(=O)c1cc(F)ccc1-n1nccn1 [Example 4, 4-{[(3R,6R)-1-{[5-fluoro-2-(2H-1,2,3-triazol-2-yl)phenyl]carbonyl}-6-methylpiperidin-3-yl]oxy}-1,1-dimethylfuro[3,4-c]pyridin-3(1H)-one]	10000 nM	23 nM
Cc1noc(-c2cccc(F)c2C(=O)N2C[C@H](Oc3nccc4c3C(=O)OC4(C)C)CC[C@H]2C)n1 [Example 17, 4-{[(3R,6R)-1-{[2-fluoro-6-(3-methyl-1,2,4-oxadiazol-5-yl)phenyl]carbonyl}-6-methylpiperidin-3-yl]oxy}-1,1-dimethylfuro[3,4-c]pyridin-3(1H)-one]	10000 nM	102 nM
C[C@@H]1CC[C@@H](Oc2nccc3c2COC3=O)CN1C(=O)c1cscc1-n1nccn1 [Example 30, 4-{[(3R,6R)-6-methyl-1-{[4-(2H-1,2,3-triazol-2-yl)-thiophen-3-yl]car-bonyl}piperidin-3-yl]oxy}furo[3,4-c]pyridin-1(3H)-one]	10000 nM	26 nM
Cc1nc(-c2ccc(F)cc2C(=O)N2C[C@H](Oc3nccc4c3C(=O)OC4(C)C)CC[C@H]2C)no1 [Example 14, 4-{[(3R,6R)-1-{[5-fluoro-2-(5-methyl-1,2,4-oxadiazol-3-yl)phenyl]carbonyl}-6-methylpiperidin-3-yl]oxy}-1,1-dimethylfuro[3,4-c]pyridin-3(1H)-one]	10000 nM	76 nM
C[C@@H]1CC[C@@H](Oc2nccc3c2C(=O)OC3(C)C)CN1C(=O)c1ccsc1-n1nccn1 [Example 20, 1,1-Dimethyl-4-{[(3R,6R)-6-methyl-1-{[2-(2H-1,2,3-triazol-2-yl)thiophen-3-yl]carbonyl}piperidin-3-yl]oxy}furo[3,4-c]pyridin-3(1H)-one]	10000 nM	39 nM
C[C@@H]1CC[C@@H](Oc2nccc3c2C(=O)OC3(C)C)CN1C(=O)c1cccc(F)c1-c1ncccn1 [Example 27, 4-({(3R,6R)-1-[(3-fluoro-2-pyrimidin-2-ylphenyl)carbonyl]-6-methylpiperidin-3-yl}oxy)-1,1-dimethylfuro[3,4-c]pyridin-3(1H)-one]	10000 nM	139 nM
C[C@@H]1CC[C@@H](Oc2cccc3c2C(=O)OC3(C)C)CN1C(=O)c1ccccc1-n1nccn1 [Example 38, 3,3-Dimethyl-7-{[(3R,6R)-6-methyl-1-{[2-(2H-1,2,3-triazol-2-yl)phenyl]carbonyl}piperidin-3-yl]oxy}-2-benzofuran-1(3H)-one]	10000 nM	169 nM
Cc1nc(-c2c(F)cccc2C(=O)N2C[C@H](Oc3nccc4c3C(=O)OC4(C)C)CC[C@H]2C)no1 [Example 16, 4-{[(3R,6R)-1-{[3-fluoro-2-(5-methyl-1,2,4-oxadiazol-3-yl)phenyl]carbonyl}-6-methylpiperidin-3-yl]oxy}-1,1-dimethylfuro[3,4-c]pyridin-3(1H)-one]	10000 nM	90 nM
C[C@@H]1OC(=O)c2c1ccnc2N[C@@H]1CC[C@@H](C)N(C(=O)c2ccccc2-n2nccn2)C1 [Example 46, (1S)-1-methyl-4-{[(3R,6R)-6-methyl-1-{[2-(2H-1,2,3-triazol-2-yl)phenyl]carbonyl}piperidin-3-yl]amino}furo[3,4-c]pyridin-3(1H)-one]	≥ 10000 nM	28 nM
